System: Ap4A-RNA
Assay: In vitro Ap4A-RNA decapping assay (cap-labelled RNA, thin-layer chromatography)
Type: biochemical
Conditions: recombinant protein 250 nM to 750 nM, 37° C., 30 min, TLC
Protocol: Briefly, using the Ap4A mixture (ATP and Ap4A) or Ap4A instead of ATP for in vitro transcription by MEGAshortscript™ T7 Transcription Kit (Life technologies; Cat. No. AM1354), we produced a 50 nt RNA. Template is the same as making 50 nt RNA for MEFs transfection. Note that if the mixture is used, this nucleotide mixture (ATP and Ap4A) still has all the components (lysine, inorganic pyrophosphatase etc) added during the Ap4A synthesis. In vitro transcription reaction was carried out at 37° C. for at least 4 h in a 20 μL reaction containing 6 pmol DNA template, 2 μL 10× reaction buffer, 2 μL of nucleotides (75 mM CTP, 75 mM UTP, 75 mM GTP), 2 μL of ATP/Ap4A mixture that we produced above, and 2 μL T7 enzyme mix (MEGAshortscript™ Kit, Life technologies, Cat. No. AM1354). After that, 1 μL TURBO DNase was added and incubated at 37° C. for 15 min to remove the DNA template. Unincorporated nucleotides were removed from the RNA preparation by Microspin G-25 Column (GE Healthcare, Cat. No. 27-5325-01), and the process was repeated twice. The radioactively labelled RNA was separated by 10% urea gel. […]
Decapping reaction products were resolved by PEI-cellulose TLC plates (Merk, Cat. No. 1057250001) and developed in 0.45 M (NH4)2SO4 in a glass chamber at room temperature. […] When required, signals were quantified by ImageQuantTL.

**Q.** How did the Ap4A-RNA decapping activity turn out when “DCP2 (NUDT20): recombinant untagged mouse DCP2 catalytic core domain (95-260 aa)” was run?
**A.** Its Ap4A-RNA decapping activity is “only NUDT2 has Ap4A-RNA decapping activity”.

From US20250049894A1, “TREATMENT OF NUDT2 MUTATION” (UNIVERSITÉ DE GENÈVE, priority 2021, published 2025)
